Test results as given in ChEMBL document CHEMBL1201862, “PubChem BioAssay data set” (2004).
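Step 1: Grow cells in 96-well plates. Step 2: Expose to compound for 48 hours at 5 concentrations. Step 3: Interpolate endpoints linearly; if unreached, use highest concentration. GI50: concentration for 50% inhibition of growth.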 The source made the active and inactive calls. Rule as the data show it: active = GI50 up to about 1.1 µM and inactive = higher.

Tests used:
Test in all cases: NCI tumour cell line growth inhibition, 48 h
[1] = tested on: HCT-15
[2] = tested on: COLO 205
[3] = tested on: TK-10
[4] = tested on: DLD-1
[5] = tested on: RXF 631
[6] = tested on: U-251
[7] = tested on: DMS-114
[8] = tested on: SNB-75
[9] = tested on: Malme-3M
[10] = tested on: EKVX
[11] = tested on: DMS-273
[12] = tested on: HT-29
[13] = tested on: RXF 393
[14] = tested on: LOX IMVI
[15] = tested on: KM12
[16] = tested on: CAKI-1
[17] = tested on: XF498
[18] = tested on: RPMI-8226
[19] = tested on: KM-20L2
[20] = tested on: UO-31
[21] = tested on: HOP-92
[22] = tested on: NCI-H460
[23] = tested on: LXFL 529
[24] = tested on: SF-295
[25] = tested on: UACC-62
[26] = tested on: HCC 2998
[27] = tested on: SW-620
[28] = tested on: SNB-19
[29] = tested on: CCRF-CEM
[30] = tested on: OVCAR-4
[31] = tested on: NCI-H226
[32] = tested on: 786-0
[33] = tested on: K562
[34] = tested on: SK-OV-3
[35] = tested on: A549
[36] = tested on: HL-60
[37] = tested on: HOP-18
[38] = tested on: SK-MEL-2
[39] = tested on: SF-268
[40] = tested on: HOP-62
[41] = tested on: ACHN
[42] = tested on: SK-MEL-28
[43] = tested on: SNB-78
[44] = tested on: UACC-257
[45] = tested on: A498
[46] = tested on: SK-MEL-5
[47] = tested on: OVCAR-3
[48] = tested on: M19-MEL
[49] = tested on: M14
[50] = tested on: MOLT-4
[51] = tested on: NCI-H23
[52] = tested on: IGROV-1
[53] = tested on: SN12C
[54] = tested on: OVCAR-8
[55] = tested on: NCI-H522
[56] = tested on: SF-539
[57] = tested on: OVCAR-5
[58] = tested on: HCT-116
[59] = tested on: SR

CC(=O)Nc1ccccc1[S+]([O-])c1ccccc1 (stereo not drawn)
GI50 [1]: > 100 µM | GI50 [2]: > 100 µM (inactive) | GI50 [3]: > 100 µM (inactive) | GI50 [4]: > 100 µM (inactive) | GI50 [5]: > 100 µM (inactive) | GI50 [6]: > 100 µM (inactive) | GI50 [7]: > 100 µM (inactive) | GI50 [8]: > 100 µM (inactive) | GI50 [9]: > 100 µM (inactive) | GI50 [10]: > 100 µM (inactive) | GI50 [11]: > 100 µM (inactive) | GI50 [12]: > 100 µM (inactive) | GI50 [13]: > 100 µM (inactive) | GI50 [14]: > 100 µM (inactive) | GI50 [15]: > 100 µM (inactive) | GI50 [16]: > 100 µM (inactive) | GI50 [17]: > 100 µM (inactive) | GI50 [18]: > 100 µM (inactive) | GI50 [19]: > 100 µM (inactive) | GI50 [20]: > 100 µM (inactive) | GI50 [21]: > 100 µM (inactive) | GI50 [22]: > 100 µM (inactive) | GI50 [23]: > 100 µM (inactive) | GI50 [24]: > 100 µM (inactive) | GI50 [25]: > 100 µM (inactive) | GI50 [26]: > 100 µM (inactive) | GI50 [27]: > 100 µM (inactive) | GI50 [28]: > 100 µM (inactive) | GI50 [29]: > 100 µM (inactive) | GI50 [30]: > 100 µM (inactive) | GI50 [31]: > 100 µM (inactive) | GI50 [32]: > 100 µM (inactive) | GI50 [33]: > 100 µM (inactive) | GI50 [34]: 84.5 µM (inactive) | GI50 [35]: > 100 µM (inactive) | GI50 [36]: > 100 µM (inactive) | GI50 [37]: > 100 µM (inactive) | GI50 [38]: > 100 µM (inactive) | GI50 [39]: > 100 µM (inactive) | GI50 [40]: > 100 µM (inactive) | GI50 [41]: > 100 µM (inactive) | GI50 [42]: > 100 µM (inactive) | GI50 [43]: > 100 µM (inactive) | GI50 [44]: > 100 µM (inactive) | GI50 [45]: > 100 µM (inactive) | GI50 [46]: > 100 µM (inactive) | GI50 [47]: > 100 µM (inactive) | GI50 [48]: > 100 µM (inactive) | GI50 [49]: > 100 µM (inactive) | GI50 [50]: > 100 µM (inactive) | GI50 [51]: > 100 µM (inactive) | GI50 [52]: > 100 µM (inactive) | GI50 [53]: > 100 µM (inactive) | GI50 [54]: > 100 µM (inactive) | GI50 [55]: 71.8 µM (inactive) | GI50 [56]: > 100 µM (inactive) | GI50 [57]: 4.21 µM (inactive) | GI50 [58]: > 100 µM (inactive)

COc1cc2c(c(OC)c1OC)-c1ccc(SC)c(=O)cc1[C@@H](NC(=O)c1ccc(OC(C)=O)cc1)CC2
GI50 [1]: 0.0229 µM | GI50 [2]: 0.0194 µM (active) | GI50 [3]: 0.0454 µM (active) | GI50 [4]: 0.0323 µM (active) | GI50 [5]: 0.0275 µM (active) | GI50 [6]: 0.0227 µM (active) | GI50 [8]: 0.0332 µM (active) | GI50 [9]: 0.0238 µM (active) | GI50 [10]: 0.0139 µM (active) | GI50 [11]: 0.01 µM (active) | GI50 [12]: 0.0248 µM (active) | GI50 [13]: 0.018 µM (active) | GI50 [14]: 0.0137 µM (active) | GI50 [15]: 0.0198 µM (active) | GI50 [16]: 33.9 µM (inactive) | GI50 [17]: 0.0169 µM (active) | GI50 [18]: 0.0327 µM (active) | GI50 [19]: 0.0189 µM (active) | GI50 [20]: 0.433 µM (active) | GI50 [21]: 0.00257 µM (active) | GI50 [22]: 0.0326 µM (active) | GI50 [23]: 0.0158 µM (active) | GI50 [24]: 0.0217 µM (active) | GI50 [25]: 0.0313 µM (active) | GI50 [26]: 0.0218 µM (active) | GI50 [27]: 0.029 µM (active) | GI50 [29]: 0.0329 µM (active) | GI50 [30]: 0.0675 µM (active) | GI50 [31]: 0.0231 µM (active) | GI50 [32]: 0.0409 µM (active) | GI50 [33]: 0.0301 µM (active) | GI50 [34]: 0.0241 µM (active) | GI50 [35]: 0.01 µM (active) | GI50 [36]: 0.0338 µM (active) | GI50 [39]: 0.0306 µM (active) | GI50 [40]: 0.0419 µM (active) | GI50 [41]: 0.0342 µM (active) | GI50 [42]: 0.0553 µM (active) | GI50 [43]: 0.00451 µM (active) | GI50 [44]: 0.0349 µM (active) | GI50 [45]: 0.0227 µM (active) | GI50 [47]: 0.015 µM (active) | GI50 [48]: 0.0265 µM (active) | GI50 [49]: 0.0215 µM (active) | GI50 [50]: 0.0409 µM (active) | GI50 [51]: 0.0212 µM (active) | GI50 [52]: 0.0319 µM (active) | GI50 [53]: 0.0324 µM (active) | GI50 [54]: 0.0313 µM (active) | GI50 [55]: 0.01 µM (active) | GI50 [56]: 0.0169 µM (active) | GI50 [57]: 24.7 µM (inactive) | GI50 [58]: 0.0229 µM (active)

CCc1cc(Cc2cc(CC)c(NC(=O)C3=CC(=O)CC(c4ccc(OC)cc4)O3)c(CC)c2Cl)c(Cl)c(CC)c1NC(=O)C1=CC(=O)CC(c2ccc(OC)cc2)O1 (stereo not drawn)
GI50 [1]: 25.6 µM | GI50 [2]: 17.8 µM (inactive) | GI50 [3]: 19.7 µM (inactive) | GI50 [4]: 18.4 µM (inactive) | GI50 [5]: 89.7 µM (inactive) | GI50 [6]: 12.9 µM (inactive) | GI50 [7]: 17.7 µM (inactive) | GI50 [8]: 20 µM (inactive) | GI50 [9]: 19.1 µM (inactive) | GI50 [10]: 30.5 µM (inactive) | GI50 [11]: 21.7 µM (inactive) | GI50 [12]: 20.2 µM (inactive) | GI50 [13]: 17.9 µM (inactive) | GI50 [14]: 18.1 µM (inactive) | GI50 [15]: 10.5 µM (inactive) | GI50 [16]: 27.7 µM (inactive) | GI50 [18]: 15.5 µM (inactive) | GI50 [19]: 26.7 µM (inactive) | GI50 [20]: 16.5 µM (inactive) | GI50 [21]: 20.8 µM (inactive) | GI50 [22]: 17.7 µM (inactive) | GI50 [23]: 18 µM (inactive) | GI50 [24]: 19.8 µM (inactive) | GI50 [25]: 23.8 µM (inactive) | GI50 [26]: 16.7 µM (inactive) | GI50 [27]: 5.9 µM (inactive) | GI50 [28]: 21.4 µM (inactive) | GI50 [29]: 28.1 µM (inactive) | GI50 [30]: 25.2 µM (inactive) | GI50 [31]: 24.8 µM (inactive) | GI50 [32]: 18.4 µM (inactive) | GI50 [33]: 32.1 µM (inactive) | GI50 [34]: 17 µM (inactive) | GI50 [35]: 23.9 µM (inactive) | GI50 [36]: 23.2 µM (inactive) | GI50 [37]: 22.1 µM (inactive) | GI50 [38]: 17.3 µM (inactive) | GI50 [39]: 25.9 µM (inactive) | GI50 [40]: 22.2 µM (inactive) | GI50 [59]: 22.5 µM (inactive) | GI50 [41]: 17.9 µM (inactive) | GI50 [42]: 23.3 µM (inactive) | GI50 [43]: 28.2 µM (inactive) | GI50 [44]: 16 µM (inactive) | GI50 [45]: 21.7 µM (inactive) | GI50 [46]: 20.3 µM (inactive) | GI50 [47]: 19.1 µM (inactive) | GI50 [48]: 17.3 µM (inactive) | GI50 [49]: 17 µM (inactive) | GI50 [50]: 31.8 µM (inactive) | GI50 [51]: 17.1 µM (inactive) | GI50 [52]: 22.4 µM (inactive) | GI50 [53]: 22 µM (inactive) | GI50 [54]: 26.5 µM (inactive) | GI50 [56]: 20.2 µM (inactive) | GI50 [57]: 20.7 µM (inactive) | GI50 [58]: 16.7 µM (inactive)
